# Source: patent publication US20020055130A1, “Method and product for regulating apoptosis” (National Jewish Center for Immunology and Respiratory …, priority 1997, published 2002)
# Columns and labels:
# JNK = JNK assay (solid state kinase assay with GST-Jun), L929 cells; assay type: cell-based, murine
# Experimental: JNK assay. JNK activity was measured using a solid state kinase assay in which glutathione S-transferase-c-Jun(1-79) (GST-JUN) cound to glutathione-Sepharose 4B beads was used to affinity pruify JNK and then JNK activity was measured in an in vitro kinase assay using the sepharose bound GST-Jun as a substrate (Hibi, M., et al. (1993) Genes & Development 7:2135-2148). Stimulated or unstimulated cells were lysed in 0.5% Nonidet P-40, 20 mM HEPES pH 7.2, 100 mM NaCl, 2 mM dithiothreitol, lmM EDTA, 1.0 mM phenylmethylsulfonylfluoride, 1 μg/ml aprotinin and the nuclei pelleted. Lysates were normalized for protein content. […] Binding to GST-Jun efficiently isolates the two major forms of JNK (p45and p55) and under the conditions used JNK isolation was linear for 10-250 μg of cell lysate. The lysates were rotated at 4° C. for 1-3 h. Beads were washed twice in lysis buffer and then twice in PAN (10 mM PIPES, pH 7.0, 100 mM NaCl, 21 μg/ml aprotinin). Kinase reactions were carried out at 30° C. for 15 min in 20 mM Hepes pH 7.2, 20 mM β-glycerophosphate, 10 mMp-nitrophenyl phosphate, 10 mM MgCl2, 1 mM dithiothreitol, 50 μm sodium vanadate, 10 μCi γ^32P-ATP 4300 Ci/mmole. The kinase reaction was linear from 0-30 min.
# p42/p44 MAPK = test: MAPK assay (EGFR662-681 peptide), L929 cells; assay type: cell-based, murine
# Experimental: MAPK Assay MAPK activity was measured exactly as described previously (Gardner, A. M., et al. (1994) Meth. Enzymol. 238:258-270) with the exception that MonoQ FPLC fractionation was replaced by step elution from a DEAE-Sephacel column using 0.5 M NaCl in loading buffer. The eluate was assayed in triplicate using the epidermal growth factor receptor 662-681 peptide (EGFR662-681) as a selective substrate for MAPK activity (Heasley, L. E., et al. (1994) American Journal of Physiology (Renal Fluid Electrolyte Physiol. 36) 267:F366-F373).
# L929 fibroblasts = test: TNF and MEKK1COOH synergy, percentage of apoptotic cells (Lac Switch clones); assay type: cell-based, murine; conditions: control L929 cells (4.1 LAC1), presence and absence of IPTG
# Description: Approximately 20% of control L929 cells became apoptotic upon TNF exposure either in the presence and absence of IPTG. In L929 cells expressing the MEKK1COOH domain, exposure to TNF and IPTG increased the percentage of apoptotic cells to 40%, approximately a 2-fold increase.
# B-Raf = test: Raf activation assay (kinase-inactive MEK-1 phosphorylation), L929 cells; assay type: cell-based, murine
# Experimental: (§1) RafActivation Assay Cells were serum starved and challenged in the presence or absence of the appropriate cytokine or growth factors, as described above. Cells were lysed by scraping in ice cold RIPA buffer (50 mM Tris-HCl, pH 7.2, 150 mM NaCl, 0.1% SDS, 0.5% sodium deoxycholate, 1.0% Triton X-100, 10 mM sodium pyrophosphate, 25 mM β-glycerophosphate, 2 mM sodium vanadate, 2.1 µg/ml aprotinin) and the nuclei were pelletted. The supernatants were normalized for protein content and precleared with protein A Sepharose prior to immunoprecipitation with rabbit antiserum to the C terminus of C-Raf, rabbit anti-serum to A-Raf or rabbit antiserum to B-Raf (Santa Cruz Biotech., Santa Cruz, Calif.) and protein A Sepharose for 2-3 hr at 4° C. The beads were washed twice with ice cold RIPA and twice with PAN. A third of the immunoprecipitate was diluted with SDS sample buffer and used for immunoblot analysis. […] Wild-type recombinant MEK-1 was autophosphorylated in parallel as a marker. Reactions were terminated by the addition of 12.5 μl 5× SDS sample buffer, boiled, and subjected to SDS-PAGE and autoradiography.
# C-Raf = test: as above; assay type: cell-based, murine
# Experimental: as §1
# L929 cells = test: TNFα-mediated apoptosis of L929 cells (neutral red assay, propidium iodide staining); assay type: cell-based, murine
# Experimental: Cell lines and culture. L929 cells (ATCC CCL1 were maintained in Dulbecco's modified Eagle's medium with 5% newborn claf serum and 5% bovine calf serum (BCS) supplemented with 100 ug/ml streptomycin and 100U/ml penicillin. The cells were grown in 10 cm dishes at 37° C. in 7.5% CO2. Cells were made quiescent where indicated by incubation in Dulbecco's modified Eagle's medium and 0.1% bovine serum albumin for 24 h. Recombinant murine TNFα and recombinant humanbFGF (147aa) were from R&D Systems, Minneapolis, Minn. Cells were pretreated where indicated with the MEK-1 inhibitor PD#098059 (Parke-Davis Pharmaceutical Corp. Ann Arbor, Mich.) for 1 h at 37° C. Cells were stimulated by incubation with the indicated cytokine or growth factor for various times at 37° C. […] Stimulation was stopped by rinsing the plates twice with ice cold phosphate buffered saline (PBS) and lysing the cells in the appropriate lysis buffer. Cells were scraped from the plates and nuclei were pelleted for 10 min at 14,000 RPM in a microcentrifuge.
# Neutral Red Assay Uptake of the dye neutral red was used as one measure of cell viability following cytokine or growth factor treatment (Finter, N. B. (1969) J. Gen Virol. 5:419-427). 1.5×10^4-2.5×10^5 L929 cells/well were plated in 12 well tissue culture dishes in 1.25 ml of media. Cells were treated for 15-20 hr with various concentrations of TNFα and/or bFGF. 2.5 μl of 1% neutral red was added to the wells and incubated for 2 hr at 37° C. PBS. The neutral red was extracted with 1.0 ml of 50% ethanol, 50 mM Na-citrate pH 4.2 and absorbency was measured at […].
# Propidium iodide staining Cells were plated on glass chamber slides (Nunc, Naperville, Ill.) at a concentration of 0.2-0.6×10^5 cells/ml. Ras expression was induced with 5 mM IPTG in Dulbecco's modified Eagle's medium with 0.1% BCS for 8-12 hr. Cells were exposed to TNFα (5 ng/ml) and/or bFGF (500 pg/ml) in Dulbecco's modified Eagle's medium with 0.1% BCS for 16 hr. The parental LACI expressing cell line (see below) was used as a control. Cells were washed twice in PBS, fixed in acetone:methanol (1:1) −20° C. for 5 min, air dried, washed twice in PBS, stained with 1 μg/ml propidium iodide (PI) in PBS for 20 min, washed in PBS, washed in H2O and mounted in 25% glycerol/PBS. PI fluorescence was observed using a Nikon inverted microscope equipped with epifluorescence and a […] filter. Images were analyzed using IP lab.
# REF52 cells = test: MEKK-induced apoptosis, microinjected REF52 cells; assay type: cell-based
# Experimental: (§2) Cells were prepared for the apoptosis studies as follows. Swiss 3T3 cells and REF52 cells were transfected with an expression plasmid encoding β-Galactoctosidase (β-Gal) detection of injected cells. One set of β-Gal transfected cells were then microinjected with an expression vector encoding MEKK1 370-738 protein. Another set of β-Gal transfected cells were then microinjected with an expression vector encoding truncated BXB-Raf protein.
# (§3) A first group of transfected Swiss 3T3 cells and REF52 cells were treated with 50 μM beauvericin for 6 hours at 37° C. Beauvericin is a compound known to induce apoptosis in mammalian cells. A second group of cells were treated with a control buffer lacking beauvericin. The treated cells were then fixed in parafornaldehyde and permeabilized with saponin using protocols standard in the art. The permeabilized cells were then labelled by incubating the cells with a fluorescein-labelled anti-tubulin antibody (1:500; obtained from GIBCO, Gaithersburg, Md.) to detect cytoplasmic shrinkage or 10 μM propidium iodide (obtained from Sigma, St. Louis, Mo.) to stain DNA to detect nuclear condensation. The labelled cells were then viewed by differential fluorescent imaging using a Nikon Diaphot fluorescent microscope. […]
# Swiss 3T3 cells = test: MEKK-induced apoptosis, microinjected Swiss 3T3 cells; assay type: cell-based
# Experimental: as §2, §3
# p38 kinase = p38 kinase activation, transfected HEK293 cells; assay type: cell-based, Human; conditions: transfection in HEK293 cells
# HEK293 cells = test: MEKK1 staining and TdT-mediated dUTP incorporation (DNA fragmentation) in transfected cells; assay type: cell-based, Human; conditions: after 48 hr
# Experimental: Human embryonal kidney 293 cells (HEK293) stably expressing the EBNA-1 protein from Epstein-Barr virus (Invitrogen) were grown in Dulbecco's modified Eagle's medium (DMEM) supplemented with 100 U/ml penicillin/streptomycin and containing 10% bovine calf serum (BCS). The cells were transfected using lipofectamine (Gibco).
# Cells were grown on glass coverslips and transfected using lipofectamine. Two days after transfection, the medium was removed and the cells were fixed in 2% paraformaldehyde, 3% sucrose in phosphate buffered saline (PBS) for 10 min at room temperature. Following three washes with PBS, the cells were permeabilized for 10 min with 2% Triton-X100 in PBS. After three PBS washes, the cells were blocked with filtered cultured medium for 15 min. The coverslips were then incubated 1 hour in TdT reaction mix (200 mM potassium cacodylate, 25 mM Tris.HCl, pH 6.6, 250 μg/ml BSA, 5 mM CoCl2, 0.25 U/μl TdT [Boehringer], 10 μM biotin-dUTP [Boehringer]) at 37° C. in a humidifed atmosphere. […] Images were taken using a Leica DMRXA microscope and analyzed with the SlideBook v2.0 software (Intelligent Imaging Innovations, Denver). […]
substance,measurement,setting,value
TNFα,concentration giving maximal JNK activation,JNK,1 ng/mL
same,time of peak JNK activity,JNK,10 to 15 min
same,JNK activation,JNK; 0.1 ng/ml,greater than four-fold
same,concentration required to stimulate p42/p44 MAPK 2-3 fold,p42/p44 MAPK,Greater than 10 ng/ml
same,time to maximal stimulation of p42/p44 MAPK activity,p42/p44 MAPK,5 to 10 min
same,MAPK activity stimulated above basal,p42/p44 MAPK; 1 ng/ml,20%
same,effect on bFGF stimulation of MAPK activity,p42/p44 MAPK; L929 cells,little or no effect on bFGF stimulation of MAPK activity
same,MAPK activity,"p42/p44 MAPK; L929 cells, TNFα 1 ng/ml where stated",only modest stimulatory effects
same,percentage of apoptotic cells,L929 fibroblasts,Approximately 20%
same,B-Raf activation,B-Raf,does not significantly activate
same,C-Raf activation,C-Raf,does not significantly activate
same,time required to induce a similar level of L929 cell death,L929 cells; 1 ng/ml,24 to 48 h
same,L929 cells being apoptotic,"L929 cells; 10 ng/ml, 15 hr",greater than 40%
MEKK1 protein: MEKK1 370-738 protein expressed from a microinjected expression vector,apoptotic morphology of expressing cells,REF52 cells,underwent cytoplasmic shrinkage and nuclear condensation leading to apoptotic death
same,apoptotic morphology of expressing cells,Swiss 3T3 cells,underwent cytoplasmic shrinkage and nuclear condensation leading to apoptotic death
"MEKK1: full length 196 kDa mouse MEKK1, HA-tagged, expressed by transfection",p38 kinase activation,p38 kinase,did not activate the p38 kinase
same,MEKK1-expressing cells apoptotic,HEK293 cells,about 30%
